# Source: PubChem BioAssay AID2060622 (Molecular Pharmacology Branch, DTP, NCI, 2025)
# Test system: 242566-281-R-J2-PDC complex spheroid viability
# Experiment: Anticancer human tumor 242566-281-R-J2-PDC patient-derived pancreatic carcinoma cell line growth inhibition [CLK]
# Details: for IC50: curve of first compound; for viability, T/C: stronger effect = lower value
# How it was run: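 Patient-derived tumor cells grown as complex spheroids with HUVEC endothelial cells and mesenchymal stem cells, treated with drug combinations. Concentrations descend in half-log steps from near clinical Cmax, or from 10 microM if Cmax unknown.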
# 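Further: spheroids exposed to compounds for 7 days before readout.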
# 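Wherever viability, T/C is given: 100% = DMSO vehicle control wells.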
smiles,measurement,setting,value
CC(C)CC(NC(=O)C(Cc1ccccc1)NC(=O)c1cnccn1)B(O)O (centres undefined) + CNC(=O)c1ccc(Nc2nc(OC3CCCC3)c3c(-c4ccc5nc(C)oc5c4)c[nH]c3n2)c(OC)c1,IC50,second compound 0.0316 µM,4.24 nM
same,IC50,second compound 0.1 µM,3.81 nM
same,IC50,second compound 0.316 µM,2.77 nM
same,IC50,second compound 1 µM,1.56 nM
same,IC50,second compound 3.16 µM,1.19 nM
same,IC50,second compound 10 µM,1.15 nM
same,"viability, T/C","second compound 0.0316 µM, first compound 0.000949 µM",82.2%
same,"viability, T/C","second compound 0.0316 µM, first compound 0.003 µM",71.1%
same,"viability, T/C","second compound 0.0316 µM, first compound 0.00949 µM",0.73%
same,"viability, T/C","second compound 0.0316 µM, first compound 0.03 µM",0.63%
same,"viability, T/C","second compound 0.0316 µM, first compound 0.0949 µM",0.4%
same,"viability, T/C","second compound 0.0316 µM, first compound 0.3 µM",0.56%
same,"viability, T/C","second compound 0.1 µM, first compound 0.000949 µM",83.3%
same,"viability, T/C","second compound 0.1 µM, first compound 0.003 µM",62.8%
same,"viability, T/C","second compound 0.1 µM, first compound 0.00949 µM",0.92%
same,"viability, T/C","second compound 0.1 µM, first compound 0.03 µM",0.76%
same,"viability, T/C","second compound 0.1 µM, first compound 0.0949 µM",0.35%
same,"viability, T/C","second compound 0.1 µM, first compound 0.3 µM",0.57%
same,"viability, T/C","second compound 0.316 µM, first compound 0.000949 µM",83%
same,"viability, T/C","second compound 0.316 µM, first compound 0.003 µM",47.5%
same,"viability, T/C","second compound 0.316 µM, first compound 0.00949 µM",0.7%
same,"viability, T/C","second compound 0.316 µM, first compound 0.03 µM",0.78%
same,"viability, T/C","second compound 0.316 µM, first compound 0.0949 µM",0.3%
same,"viability, T/C","second compound 0.316 µM, first compound 0.3 µM",0.78%
same,"viability, T/C","second compound 1 µM, first compound 0.000949 µM",73.2%
same,"viability, T/C","second compound 1 µM, first compound 0.003 µM",19.7%
same,"viability, T/C","second compound 1 µM, first compound 0.00949 µM",0.52%
same,"viability, T/C","second compound 1 µM, first compound 0.03 µM",0.28%
same,"viability, T/C","second compound 1 µM, first compound 0.0949 µM",0.45%
same,"viability, T/C","second compound 1 µM, first compound 0.3 µM",0.4%
same,"viability, T/C","second compound 3.16 µM, first compound 0.000949 µM",60.6%
same,"viability, T/C","second compound 3.16 µM, first compound 0.003 µM",6.63%
same,"viability, T/C","second compound 3.16 µM, first compound 0.00949 µM",0.34%
same,"viability, T/C","second compound 3.16 µM, first compound 0.03 µM",0.29%
same,"viability, T/C","second compound 3.16 µM, first compound 0.0949 µM",0.35%
same,"viability, T/C","second compound 3.16 µM, first compound 0.3 µM",0.37%
same,"viability, T/C","second compound 10 µM, first compound 0.000949 µM",59.4%
same,"viability, T/C","second compound 10 µM, first compound 0.003 µM",3.83%
same,"viability, T/C","second compound 10 µM, first compound 0.00949 µM",0.57%
same,"viability, T/C","second compound 10 µM, first compound 0.03 µM",0.53%
same,"viability, T/C","second compound 10 µM, first compound 0.0949 µM",0.43%
same,"viability, T/C","second compound 10 µM, first compound 0.3 µM",0.42%
CC1(C)CCC(CN2CCN(c3ccc(C(=O)NS(=O)(=O)c4ccc(NCC5CCOCC5)c([N+](=O)[O-])c4)c(Oc4cnc5[nH]ccc5c4)c3)CC2)=C(c2ccc(Cl)cc2)C1 + CNC(=O)c1ccc(Nc2nc(OC3CCCC3)c3c(-c4ccc5nc(C)oc5c4)c[nH]c3n2)c(OC)c1,IC50,second compound 0.0316 µM,> 10000 nM
same,IC50,second compound 0.1 µM,> 10000 nM
same,IC50,second compound 0.316 µM,10000 nM
same,IC50,second compound 1 µM,> 10000 nM
same,IC50,second compound 3.16 µM,> 10000 nM
same,IC50,second compound 10 µM,> 10000 nM
same,"viability, T/C","second compound 0.0316 µM, first compound 0.0316 µM",80%
same,"viability, T/C","second compound 0.0316 µM, first compound 0.1 µM",95.8%
same,"viability, T/C","second compound 0.0316 µM, first compound 0.316 µM",113%
same,"viability, T/C","second compound 0.0316 µM, first compound 1 µM",123%
same,"viability, T/C","second compound 0.0316 µM, first compound 3.16 µM",115%
same,"viability, T/C","second compound 0.0316 µM, first compound 10 µM",96.4%
same,"viability, T/C","second compound 0.1 µM, first compound 0.0316 µM",83%
same,"viability, T/C","second compound 0.1 µM, first compound 0.1 µM",92%
same,"viability, T/C","second compound 0.1 µM, first compound 0.316 µM",97.2%
same,"viability, T/C","second compound 0.1 µM, first compound 1 µM",131%
same,"viability, T/C","second compound 0.1 µM, first compound 3.16 µM",105%
same,"viability, T/C","second compound 0.1 µM, first compound 10 µM",73.9%
same,"viability, T/C","second compound 0.316 µM, first compound 0.0316 µM",87.3%
same,"viability, T/C","second compound 0.316 µM, first compound 0.1 µM",96.6%
same,"viability, T/C","second compound 0.316 µM, first compound 0.316 µM",72%
same,"viability, T/C","second compound 0.316 µM, first compound 1 µM",92.4%
same,"viability, T/C","second compound 0.316 µM, first compound 3.16 µM",84.8%
same,"viability, T/C","second compound 0.316 µM, first compound 10 µM",50%
same,"viability, T/C","second compound 1 µM, first compound 0.0316 µM",71.2%
same,"viability, T/C","second compound 1 µM, first compound 0.1 µM",68.4%
same,"viability, T/C","second compound 1 µM, first compound 0.316 µM",69.7%
same,"viability, T/C","second compound 1 µM, first compound 1 µM",73%
same,"viability, T/C","second compound 1 µM, first compound 3.16 µM",77.9%
same,"viability, T/C","second compound 1 µM, first compound 10 µM",60.4%
same,"viability, T/C","second compound 3.16 µM, first compound 0.0316 µM",51.9%
same,"viability, T/C","second compound 3.16 µM, first compound 0.1 µM",54%
same,"viability, T/C","second compound 3.16 µM, first compound 0.316 µM",57.8%
same,"viability, T/C","second compound 3.16 µM, first compound 1 µM",61.8%
same,"viability, T/C","second compound 3.16 µM, first compound 3.16 µM",66.3%
same,"viability, T/C","second compound 3.16 µM, first compound 10 µM",45.4%
same,"viability, T/C","second compound 10 µM, first compound 0.0316 µM",54.6%
same,"viability, T/C","second compound 10 µM, first compound 0.1 µM",49.2%
same,"viability, T/C","second compound 10 µM, first compound 0.316 µM",54.3%
same,"viability, T/C","second compound 10 µM, first compound 1 µM",55.3%
same,"viability, T/C","second compound 10 µM, first compound 3.16 µM",60.2%
same,"viability, T/C","second compound 10 µM, first compound 10 µM",46.8%
